Test results from ChEMBL document CHEMBL3400050, “The synthesis and evaluation of sesamol and benzodioxane derivatives as inhibitors of monoamine oxidase” (Bioorg Med Chem Lett, 2015).

Legend:
[1] = molecular target: T1, Amine oxidase [flavin-containing] A (Homo sapiens, UniProt P21397); assay: Inhibition of human recombinant MAOA using kynuramine substrate assessed as reduction in MAO-generated 4-hydroxyquinoline level by fluorescence spectrophotometry
T1 sequence (P21397 whole entry): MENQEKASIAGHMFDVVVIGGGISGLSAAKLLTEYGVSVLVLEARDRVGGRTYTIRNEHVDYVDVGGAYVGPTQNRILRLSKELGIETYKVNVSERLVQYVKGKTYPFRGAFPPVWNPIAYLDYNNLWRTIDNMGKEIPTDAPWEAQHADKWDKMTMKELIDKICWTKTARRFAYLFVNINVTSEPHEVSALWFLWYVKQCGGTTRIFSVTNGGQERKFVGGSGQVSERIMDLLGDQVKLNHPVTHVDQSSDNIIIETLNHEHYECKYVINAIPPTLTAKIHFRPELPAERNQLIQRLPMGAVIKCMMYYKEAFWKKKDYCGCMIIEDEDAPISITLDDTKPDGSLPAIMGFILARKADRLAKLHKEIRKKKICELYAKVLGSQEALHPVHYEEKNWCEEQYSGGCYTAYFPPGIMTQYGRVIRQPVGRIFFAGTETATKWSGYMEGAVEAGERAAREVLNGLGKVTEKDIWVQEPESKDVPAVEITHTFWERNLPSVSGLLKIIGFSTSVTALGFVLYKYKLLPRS

[2] = molecular target: T2, Amine oxidase [flavin-containing] B (Homo sapiens, UniProt P27338); assay: Inhibition of human recombinant MAOB using kynuramine substrate assessed as reduction in MAO-generated 4-hydroxyquinoline level by fluorescence spectrophotometry
T2 sequence (P27338 whole entry): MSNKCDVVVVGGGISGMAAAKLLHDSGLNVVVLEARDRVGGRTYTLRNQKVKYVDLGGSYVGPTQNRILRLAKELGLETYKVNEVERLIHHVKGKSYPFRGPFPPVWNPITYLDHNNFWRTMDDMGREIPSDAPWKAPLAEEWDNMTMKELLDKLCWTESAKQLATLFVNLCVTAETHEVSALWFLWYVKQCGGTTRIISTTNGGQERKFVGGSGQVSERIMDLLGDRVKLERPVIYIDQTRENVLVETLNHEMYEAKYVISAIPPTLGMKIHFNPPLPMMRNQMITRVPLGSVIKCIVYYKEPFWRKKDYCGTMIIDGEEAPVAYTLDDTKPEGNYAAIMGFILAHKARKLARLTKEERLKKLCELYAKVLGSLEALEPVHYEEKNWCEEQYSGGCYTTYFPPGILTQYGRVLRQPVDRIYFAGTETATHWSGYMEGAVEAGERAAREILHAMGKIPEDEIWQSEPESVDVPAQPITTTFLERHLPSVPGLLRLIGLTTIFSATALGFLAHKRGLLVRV

Homo sapiens = species: Homo sapiens; assay: Selectivity index, ratio of IC50 for human recombinant MAOA to IC50 for human recombinant MAOB
[3] = molecular target: T1, Amine oxidase [flavin-containing] A; assay: Inhibition of human recombinant MAOA at 100 uM using kynuramine substrate assessed as reduction in MAO-generated 4-hydroxyquinoline level by fluorescence spectrophotometry
[4] = molecular target: T2, Amine oxidase [flavin-containing] B; assay: Reversible inhibition of human recombinant MAOB pre-incubated for 15 mins at 4 times IC50 level subsequently dialysed for 24 hrs followed by two fold dilution with kynuramine substrate assessed as enzyme catalytic activity by measuring 4-hydroxyquinoline level after 20 mins by fluorescence spectrophotometry; set-up: scale not given: the % may be the effect or the level left
[5] = molecular target: T2, Amine oxidase [flavin-containing] B; assay: Reversible inhibition of human recombinant MAOB pre-incubated for 15 mins at 4 times IC50 level using kynuramine substrate assessed as enzyme catalytic activity by measuring 4-hydroxyquinoline level after 20 mins by fluorescence spectrophotometry; set-up: scale not given: the % may be the effect or the level left
[6] = molecular target: T2, Amine oxidase [flavin-containing] B; assay: Competitive inhibition of human recombinant MAOB using kynuramine substrate assessed as reduction in MAO-generated 4-hydroxyquinoline level by Lineweaver-Burk plot

Row | IC50 [1] [µM] | IC50 [2] [µM] | Ratio IC50 (Homo sapiens) | inhibition (INH) [3] | Activity [4] [%] | Activity [5] [%] | Ki [6] [µM] | SMILES
1 | 70.4 | 0.947 | 74 |  |  |  |  | c1ccc(CCCOc2ccc3c(c2)OCCO3)cc1
2 | 87.7 | 3.31 | 26 |  |  |  |  | c1ccc(CCOc2ccc3c(c2)OCO3)cc1
3 |  | 1.14 | > 88 | Not Active |  |  |  | c1ccc(OCCOc2ccc3c(c2)OCO3)cc1
4 | 51.8 | 0.248 | 209 |  |  |  |  | Clc1cccc(COc2ccc3c(c2)OCO3)c1
5 | 27.8 | 0.048 | 579 |  |  |  |  | c1ccc(CCOc2ccc3c(c2)OCCO3)cc1
6 | 69.4 | 0.109 | 637 |  |  |  |  | c1ccc(OCCOc2ccc3c(c2)OCCO3)cc1
7 | 13.2 | 0.057 | 232 |  |  |  |  | Clc1cccc(COc2ccc3c(c2)OCCO3)c1
8 | 38.4 | 0.164 | 234 |  |  |  |  | Brc1cccc(COc2ccc3c(c2)OCO3)c1
9 |  | 0.348 | > 287 | Not Active |  |  |  | Clc1ccc(OCCOc2ccc3c(c2)OCCO3)cc1
10 | 16.9 | 0.045 | 375 |  | 87 | 21 | 0.041 | Brc1cccc(COc2ccc3c(c2)OCCO3)c1
11 |  | 0.941 | > 106 | Not Active |  |  |  | Brc1ccc(OCCOc2ccc3c(c2)OCCO3)cc1
12 | 77.1 | 7.29 | 11 |  |  |  |  | c1ccc(CCCOc2ccc3c(c2)OCO3)cc1
13 |  | 1.69 | > 59 | Not Active |  |  |  | Clc1ccc(OCCOc2ccc3c(c2)OCO3)cc1
14 |  | 7.07 | > 14 | Not Active |  |  |  | Brc1ccc(OCCOc2ccc3c(c2)OCO3)cc1
15 |  | 0.513 | > 195 | Not Active |  |  |  | c1ccc(COc2ccc3c(c2)OCO3)cc1
16 | 36 | 0.168 | 215 |  |  |  |  | c1ccc(COc2ccc3c(c2)OCCO3)cc1
